# Laboratory results: patent publication US20050118290A1, “Compositions and method for treatment of steroid/nuclear receptor-mediated diseases” (University of Singapore, priority 2003, published 2005)
# How the values were obtained:
# Format in all cases: cell-based
# [1] = target: T1, human estrogen receptor ERα (Homo sapiens, UniProt P03372); test: ERα MMTV-ERE-LUC reporter gene assay in HeLa cells
# T1 construct: expressed in transfected cells; host or cells: HeLa
# T1 sequence (P03372 1-595): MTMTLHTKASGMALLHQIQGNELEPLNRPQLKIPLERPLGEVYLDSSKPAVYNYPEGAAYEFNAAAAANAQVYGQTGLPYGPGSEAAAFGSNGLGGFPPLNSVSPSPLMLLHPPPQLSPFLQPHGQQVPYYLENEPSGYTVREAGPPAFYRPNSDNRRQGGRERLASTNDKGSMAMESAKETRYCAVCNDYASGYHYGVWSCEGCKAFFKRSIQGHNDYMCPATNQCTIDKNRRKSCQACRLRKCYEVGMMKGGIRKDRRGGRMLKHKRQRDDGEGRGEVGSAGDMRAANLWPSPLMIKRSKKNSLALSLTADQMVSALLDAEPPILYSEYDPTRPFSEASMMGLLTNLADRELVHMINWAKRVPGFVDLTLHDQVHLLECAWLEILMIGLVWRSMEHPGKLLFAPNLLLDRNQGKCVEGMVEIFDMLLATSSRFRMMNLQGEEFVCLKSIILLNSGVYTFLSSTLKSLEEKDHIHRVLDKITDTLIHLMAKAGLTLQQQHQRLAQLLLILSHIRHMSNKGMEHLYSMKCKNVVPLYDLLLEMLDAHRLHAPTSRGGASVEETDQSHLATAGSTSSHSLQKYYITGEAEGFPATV
# Experimental: (§1) ERα and ERβ activity were assayed using plasmids encoding either ERα or ERβ co-transfected with the ERE-LUC reporter gene. To assay estrogen receptor agonist activity, HeLa cells were transiently co-transfected with two plasmids (Tcherepanova, et al., 2000) using Lipofectamine. The first plasmid comprised DNA encoding human estrogen receptor (either ERα or ERβ), and the second plasmid comprised an estrogen-driven reporter system comprising: a luciferase reporter gene (LUC) whose transcription is under the control of upstream regulatory elements comprising 4 copies of the vitellogenin estrogen response element (ERE) cloned into the Mouse Mammary Tumor Virus (MMTV) promoter (the full name of the reporter system being ‘MMTV-ERE-LUC’).
# (§2) AR, PR, GR and ERα and […] were determined by comparing luciferase activity in test cells with control cells exposed to vehicle (i.e., ethanol or methanol) only, analogous to the determination of PPAR activity as described in the previous examples.
# PPARγ = target: T2, PPARγ (Homo sapiens, UniProt P37231); test: Chimeric Gal4DBD-PPARγLBD receptor / UASg-luciferase reporter gene assay in HeLa cells
# T2 construct: expressed in transfected cells; host or cells: HeLa
# T2 sequence (P37231 238-503 limits assumed): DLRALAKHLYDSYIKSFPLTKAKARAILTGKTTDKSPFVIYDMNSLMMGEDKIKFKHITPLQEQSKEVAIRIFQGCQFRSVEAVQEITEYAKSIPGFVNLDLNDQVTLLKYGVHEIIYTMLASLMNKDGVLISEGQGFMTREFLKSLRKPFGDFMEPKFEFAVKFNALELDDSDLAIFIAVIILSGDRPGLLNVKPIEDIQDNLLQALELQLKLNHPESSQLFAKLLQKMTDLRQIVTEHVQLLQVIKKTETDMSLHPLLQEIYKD
# From the text: (§3) In an example of such a reporter gene assay, a plasmid containing chimeric Ga14DBD-PPARLBD receptor cDNA was constructed by excising the ligand binding domain (LBD) of full length PPARγ and PPARα and ligating the resulting fragments in frame to the Ga14-DNA binding domain (DBD) of Saccharomyces cerevisiae in a pM vector (Clontech). Specifically, to construct Ga14DBD-PPARγLBD plasmid, pSG5 expression vector (Stratagene) containing full length PPARγ was excised with Rsa I and blunt ligated to Hind III site of pMGa14DBD expression plasmid (Clontech). To construct Ga14DBD-PPARαLBD plasmid, pSG5 expression vector (Stratagene) containing full length PPARα was excised with BstU I and BamH I and blunt-end ligated in frame to BamH I site of pMGa14DBD expression plasmid (Clontech). […] Ga14 DBD binds very strongly to the exogenous UASg promoter, thereby giving rise to a sensitive and specific assay. To measure PPARγ and PPARα agonist activity, HeLa cells were grown in 24-well microtiter plates and then transiently co-transfected with the two plasmids (chimeric PPAR receptor and UASg reporter gene) using Lipofectamine (Invitrogen). […] Concurrently, cells exposed to known PPAR ligands served as positive controls. Replicate wells, exposed to the vehicle solvent (i.e., ethanol or methanol) in which herbal extracts were dissolved, were used as negative controls. After the 40 hr incubation period, cells were rinsed with phosphate buffered saline (PBS), lysis buffer was added, and cell lysates were collected for measurement of luciferase activity using a luminometer. […] All data points are in triplicate. The data points represent the mean of triplicate wells. Luciferase activity in such an assay accurately reflects the activity of any ligands on PPARγ or PPARα.
# [2] = target: T3, human estrogen receptor ERβ (Homo sapiens, UniProt Q92731); test: ERβ MMTV-ERE-LUC reporter gene assay in HeLa cells; conditions: for ERβ activity comparable to % maximal activity of Estradiol / maximal fold increase in ERβ activity: 30×10^−6 g/ml
# T3 construct: expressed in transfected cells; host or cells: HeLa
# Experimental: as §1, §2
# PPARα = target: T4, PPARα (Homo sapiens, UniProt Q07869); test: Chimeric Gal4DBD-PPARαLBD receptor / UASg-luciferase reporter gene assay in HeLa cells
# T4 construct: expressed in transfected cells; host or cells: HeLa
# T4 sequence (Q07869 239-466 limits assumed): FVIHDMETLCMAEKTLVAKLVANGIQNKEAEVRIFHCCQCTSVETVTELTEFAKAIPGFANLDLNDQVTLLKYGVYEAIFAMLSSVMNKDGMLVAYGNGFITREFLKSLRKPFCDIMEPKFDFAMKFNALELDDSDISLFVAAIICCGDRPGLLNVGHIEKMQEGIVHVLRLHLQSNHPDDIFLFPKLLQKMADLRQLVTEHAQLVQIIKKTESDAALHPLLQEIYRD
# From the text: as §3
# T3 sequence (Q92731 whole entry): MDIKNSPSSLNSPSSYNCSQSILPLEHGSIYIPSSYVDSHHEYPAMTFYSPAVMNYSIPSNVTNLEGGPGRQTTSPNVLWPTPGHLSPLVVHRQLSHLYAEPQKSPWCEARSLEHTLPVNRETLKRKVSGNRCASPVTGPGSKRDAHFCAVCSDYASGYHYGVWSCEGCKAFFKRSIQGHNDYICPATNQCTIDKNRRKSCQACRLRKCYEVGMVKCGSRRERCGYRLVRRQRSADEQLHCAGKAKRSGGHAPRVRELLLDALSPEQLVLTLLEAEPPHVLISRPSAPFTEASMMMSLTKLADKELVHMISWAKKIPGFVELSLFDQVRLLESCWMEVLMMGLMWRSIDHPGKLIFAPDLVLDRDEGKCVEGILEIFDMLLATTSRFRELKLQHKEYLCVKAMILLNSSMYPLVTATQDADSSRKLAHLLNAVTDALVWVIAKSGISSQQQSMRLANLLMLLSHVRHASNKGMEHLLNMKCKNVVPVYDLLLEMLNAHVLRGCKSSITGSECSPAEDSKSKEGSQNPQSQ
smiles,measurement,setting,value
"COc1ccc(-c2coc3cc(O)ccc3c2=O)cc1O [calycosin, 3′,7-Dihydroxy-4′-methoxyisoflavone]",ERα activity comparable to % maximal activity of Estradiol,[1]; 30×10^−6 g/ml,~50%
same,maximal fold increase in ERα activity,[1]; 30×10^−6 g/ml,20 fold
same,Luciferase activity (Fold over vehicle ± SE) ERα/Estradiol (1 × 10^−9M),[1]; calycosin 3 ×10^−6 g/mL,118 ± 2.18 Fold
same,Luciferase activity (Fold over vehicle ± SE) ERα/Estradiol (1 × 10^−9M),[1]; calycosin 10 ×10^−6 g/mL,127 ± 6.3 Fold
same,Luciferase activity (Fold over vehicle ± SE) ERα/Estradiol (1 × 10^−9M),[1]; calycosin 30 ×10^−6 g/mL,114 ± 4.18 Fold
same,increase of the activity of maximal doses of estradiol on ERα,[1]; with estradiol 1×10^−9M,2.9 fold
same,PPARγ activity comparable to % maximal activity of pioglitazone,PPARγ; 30×10^−6 g/ml,~50%
same,maximal fold PPARγ activity,PPARγ; 30×10^−6 g/ml,40 fold
same,Luciferase activity (Fold over vehicle ± SE) PPARγ/Pioglitazone (30 × 10^−6M),PPARγ; calycosin 3 ×10^−6 g/mL,105 ± 10.7 Fold
same,Luciferase activity (Fold over vehicle ± SE) PPARγ/Pioglitazone (30 × 10^−6M),PPARγ; calycosin 10 ×10^−6 g/mL,162 ± 28.5 Fold
same,Luciferase activity (Fold over vehicle ± SE) PPARγ/Pioglitazone (30 × 10^−6M),PPARγ; calycosin 30 ×10^−6 g/mL,253 ± 30.7 Fold
same,increase of the activity of maximal doses of PPARγ agonist,PPARγ; with pioglitazone 30×10^−6M,3 fold
same,effect on ERβ activity of estradiol,[2]; 1 to 30×10^−6 g/mL + estradiol 1×10^−9M,additive
same,ERβ activity comparable to % maximal activity of Estradiol,[2],~400%
same,maximal fold increase in ERβ activity,[2],100 fold
same,Luciferase activity (Fold over vehicle ± SE) ERβ/Estradiol (1 × 10^−9M),[2]; calycosin 3 ×10^−6 g/mL,55.2 ± 1.21 Fold
same,Luciferase activity (Fold over vehicle ± SE) ERβ/Estradiol (1 × 10^−9M),[2]; calycosin 10 ×10^−6 g/mL,65.1 ± 2.71 Fold
same,Luciferase activity (Fold over vehicle ± SE) ERβ/Estradiol (1 × 10^−9M),[2]; calycosin 30 ×10^−6 g/mL,70.7 ± 3.61 Fold
same,Luciferase activity (Fold over vehicle ± SE) PPARα/WY14643 (30 × 10^−6M),PPARα; calycosin 3 ×10^−6 g/mL,197 ± 20.6 Fold
same,Luciferase activity (Fold over vehicle ± SE) PPARα/WY14643 (30 × 10^−6M),PPARα; calycosin 10 ×10^−6 g/mL,257 ± 8.85 Fold
same,Luciferase activity (Fold over vehicle ± SE) PPARα/WY14643 (30 × 10^−6M),PPARα; calycosin 30 ×10^−6 g/mL,294 ± 39.2 Fold
same,increase of the activity of maximal doses of PPARα agonist,PPARα; with WY14643 30×10^−6M,1.8 fold
O=c1c(-c2ccc(O)cc2)coc2cc(O)ccc12 [daidzein],ERα activity comparable to % maximal activity of Estradiol,[1]; 5×10^−6 g/ml,~100%
same,maximal fold increase in ERα activity,[1]; 5×10^−6 g/ml,20 fold
same,PPARγ activity comparable to % maximal activity of pioglitazone,PPARγ; 20×10^−6 g/m,~22%
same,maximal fold PPARγ activity,PPARγ; 20×10^−6 g/m,20 fold
same,ERβ activity comparable to % maximal activity of Estradiol,[2],~200%
same,maximal fold increase in ERβ activity,[2],29 fold
same,PPARα activity comparable to % maximal activity of W14643,PPARα; 10×10^−6 g/ml,~73%
same,maximal fold PPARα activity,PPARα; 10×10^−6 g/ml,8 fold
same,Luciferase activity (Fold over vehicle ± SE) PPARα/WY14643 (30 × 10^−6M),PPARα; daidzein 5 ×10^−6 g/mL,58.2 ± 14.9 Fold
same,Luciferase activity (Fold over vehicle ± SE) PPARα/WY14643 (30 × 10^−6M),PPARα; daidzein 10 ×10^−6 g/mL,71.3 ± 9.90 Fold
same,Luciferase activity (Fold over vehicle ± SE) PPARα/WY14643 (30 × 10^−6M),PPARα; daidzein 20 ×10^−6 g/mL,53.4 ± 13.3 Fold
